Laboratory results reported in patent US20230212180A1, “SUBSTITUTED PYRAZINE COMPOUND, PHARMACEUTICAL COMPOSITION COMPRISING SAME, AND USE THEREOF” (Sichuan Kelun-Biotech Biopharmaceutical Co., Ltd., priority 2020, published 2023).
pIC50: −log10 of the molar value.

Assays:
[1] = system: KYSE-520 cell (human esophageal squamous cell carcinoma cell); assay: Inhibition of the proliferation activity of KYSE-520 cell (CellTiter-Glo); type: cell-based; conditions: 120 h, KYSE-520 cell proliferation, 5 days
Protocol: Test Example 2: Experiment on the Inhibition of the Proliferation Activity of KYSE-520 Cell (Human Esophageal Squamous Cell Carcinoma Cell)
cell: KYSE-520 (JCRB Cell Bank);
kit: CellTiter-Glo® Luminescent Cell Viability Assay Kit (Promega).
inoculation amount of cell: 1500 cells/well;
incubation conditions for compound: 37° C., 5% CO2;
incubation duration: 5 days;
detecting temperature: room temperature;
chemiluminescence detection using the BMG PHERAstar FS reader.
Cells were cultured in a medium containing 10% fetal bovine serum under the culture conditions of 37° C. and 5% CO2. An appropriate amount of cells were plated into a 96-well plate and cultured overnight in an incubator to allow the cells to adhere to the wall. The following day, the medium was removed and a complete medium containing a pre-diluted compound was added and incubated at 37° C. for 5 days. On the fifth day, the detection reagent CellTiter-Glo® was added into each well. Chemiluminescence was adopted to detect the relative luminescence units (RLUs) of the wells.
The result of a well containing cell-free medium, treated with CellTiter-Glo®, was obtained as the blank value. Cell viability (%)=(sample RLU−blank RLU)/(vehicle RLU−blank RLU)×100%, and maximum inhibition rate (%)=100%−cell viabilitymax. conc. (%). The half maximal inhibitory concentration (IC50) of the compound was calculated by fitting the curve according to the four-parameter logistic model.

[2] = target: T1, recombinant full-length human PTPN11 (SHP2) (Homo sapiens, UniProt Q06124); assay: Inhibition of in vitro enzyme activity of SHP2 (DiFMUP fluorescence endpoint assay); type: biochemical; conditions: SHP2 0.5 nM, DiFMUP 200 μM, IRS-1 0.5 μM; 60 min incubation
T1 construct: recombinant full-length human PTPN11 (SHP2), active (SignalChem); purchased SignalChem
T1 sequence (Q06124 1-593): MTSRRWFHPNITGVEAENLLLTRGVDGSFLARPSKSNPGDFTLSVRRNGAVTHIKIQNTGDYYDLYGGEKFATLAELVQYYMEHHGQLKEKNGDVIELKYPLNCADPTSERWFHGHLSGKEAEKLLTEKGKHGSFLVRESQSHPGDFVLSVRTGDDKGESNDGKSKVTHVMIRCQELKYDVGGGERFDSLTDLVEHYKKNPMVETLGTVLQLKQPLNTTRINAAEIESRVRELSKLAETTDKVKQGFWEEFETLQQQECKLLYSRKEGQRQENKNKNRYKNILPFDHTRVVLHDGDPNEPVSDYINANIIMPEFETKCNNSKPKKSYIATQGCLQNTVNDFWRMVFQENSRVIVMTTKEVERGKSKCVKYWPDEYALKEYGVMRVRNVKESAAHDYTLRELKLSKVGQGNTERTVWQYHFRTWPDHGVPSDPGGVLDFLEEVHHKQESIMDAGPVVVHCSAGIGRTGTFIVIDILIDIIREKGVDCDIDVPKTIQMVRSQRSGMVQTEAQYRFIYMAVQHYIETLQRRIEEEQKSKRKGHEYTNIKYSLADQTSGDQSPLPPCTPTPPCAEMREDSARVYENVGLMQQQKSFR
Protocol: Test Example 1: Experiment on the Inhibition of In Vitro Enzyme Activity of SHP2 (Protein Phosphatase)
phosphatase: recombinant full-length human PTPN11 (SHP2), active (SignalChem);
substrate: 6,8-difluoro-4-methylumbelliferyl phosphate (DiFMUP) (Invitrogen);
activating peptide: IRS1_pY1172(dPEG8)pY1222 (IRS1) (BPS Bioscience);
terminator: bpv(phen) (bpv) (Abcam).
SHP2 concentration: 0.5 nM;
DiFMUP concentration: 200 μM;
IRS-1 concentration: 0.5 μM;
bpv concentration: 160 μM;
buffer systems: 60 mM Hepes pH 7.2; 75 mM NaCl; 75 mM KCl; 0.05% surfactant P20; 1 mM EDTA; 5 mM DTT;
incubation duration of compound and enzyme: 60 minutes;
reaction time of enzyme and substrate: 30 minutes;
parameters for microplate reader: BMG PHERAstar fluorescence microplate reader at an excitation wavelength of 340 nm and an emission wavelength of 450 nm.
Test group: A mixture of the test compound and the phosphatase SHP2 together with the activating peptide IRS-1 were incubated in the buffer system at room temperature for 60 minutes. The substrate DiFMUP was added to initiate the reaction and incubated at room temperature for 30 minutes. Thereafter, bpv was added to terminate the reaction. The reaction plate was placed in the microplate reader, and the fluorescence intensities of the wells in the plate were measured using an endpoint assay.
Negative group: The experimental method for the negative group was the same as that for the test group, except that the test compound was substituted with 0.05% aqueous solution of DMSO.
Blank group: The experimental method for the blank group was the same as that for the test group, except that the test compound was substituted with 0.05% aqueous solution of DMSO and that SHP2 was not added.
The relative inhibitory activity was calculated for the test group at each concentration based on the following equation: inhibition rate (%)=100%−(the fluorescence intensity of the test group−the fluorescence intensity of the blank group)/(the fluorescence intensity of the negative group−the fluorescence intensity of the blank group)×100%. The half maximal inhibitory concentration (IC50) of the compound was calculated by fitting the curve according to the four-parameter logistic model.

hERG = target: T2, hERG (Homo sapiens, UniProt Q12809); assay: Biochemical assay for hERG inhibition (Predictor hERG Fluorescence Polarization Assay Kit); type: binding
T2 construct: purchased ThermoFisher
T2 sequence (Q12809 whole entry): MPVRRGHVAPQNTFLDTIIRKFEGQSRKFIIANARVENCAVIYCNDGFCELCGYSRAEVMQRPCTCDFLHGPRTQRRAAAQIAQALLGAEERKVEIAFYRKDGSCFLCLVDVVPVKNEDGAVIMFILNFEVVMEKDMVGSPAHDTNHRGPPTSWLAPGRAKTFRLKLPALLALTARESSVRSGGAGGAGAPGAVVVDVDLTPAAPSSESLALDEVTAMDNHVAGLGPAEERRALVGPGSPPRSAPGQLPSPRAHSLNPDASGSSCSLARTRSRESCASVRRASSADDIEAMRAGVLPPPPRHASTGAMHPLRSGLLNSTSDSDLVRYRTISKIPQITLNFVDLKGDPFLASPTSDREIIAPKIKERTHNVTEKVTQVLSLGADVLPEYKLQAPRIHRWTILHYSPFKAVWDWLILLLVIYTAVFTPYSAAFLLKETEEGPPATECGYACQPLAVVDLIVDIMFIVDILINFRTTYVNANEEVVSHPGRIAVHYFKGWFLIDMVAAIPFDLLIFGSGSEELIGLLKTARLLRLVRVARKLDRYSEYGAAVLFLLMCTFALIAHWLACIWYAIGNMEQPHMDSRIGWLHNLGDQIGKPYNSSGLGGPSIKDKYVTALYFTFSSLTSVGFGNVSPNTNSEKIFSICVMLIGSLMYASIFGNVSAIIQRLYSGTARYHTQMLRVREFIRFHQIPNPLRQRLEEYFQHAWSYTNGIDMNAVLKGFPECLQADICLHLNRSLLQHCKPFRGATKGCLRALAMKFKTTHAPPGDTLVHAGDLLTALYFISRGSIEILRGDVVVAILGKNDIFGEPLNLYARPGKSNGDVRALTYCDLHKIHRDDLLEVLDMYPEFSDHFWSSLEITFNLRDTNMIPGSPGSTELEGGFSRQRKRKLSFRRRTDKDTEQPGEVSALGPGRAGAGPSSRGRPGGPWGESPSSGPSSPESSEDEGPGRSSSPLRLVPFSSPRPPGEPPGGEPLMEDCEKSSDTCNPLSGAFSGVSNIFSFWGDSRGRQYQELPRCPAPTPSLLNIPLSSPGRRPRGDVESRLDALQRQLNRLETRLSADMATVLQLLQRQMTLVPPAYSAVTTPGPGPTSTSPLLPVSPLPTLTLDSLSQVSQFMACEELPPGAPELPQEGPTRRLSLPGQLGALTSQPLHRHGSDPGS
Protocol: Test Example 3: Biochemical Assay for hERG Inhibition
kit: Predictor™ hERG Fluorescence Polarization Assay Kit (ThermoFisher) containing:
Compound E4031 as a positive control;
tracer concentration: 1 nM;
incubation duration: 2 hours;
parameters for microplate reader: BMG PHERAstar FS fluorescence microplate reader.
Test group: The test compounds at different concentrations were added into a microplate containing hERG cell membrane, and the tracer with a high affinity for hERG was then added into each well. The microplate was incubated at 25° C. for 2 hours before detection of the change in fluorescence polarization value (mP) (excitation wavelength: 540 nm; emission wavelength: 590 nm) using a multi-mode microplate reader.
Positive control group: The experimental method for the positive control group was the same as that for the test group, except that the test compound was replaced with 30 μM Compound E4031.
Blank control group: The experimental method for the blank control group was the same as that for the test group, except that the test compound was replaced with the hERG buffer and that the hERG cell membrane was not added.
Based on the data ratios, the percentage inhibition (%) of the compounds of the present disclosure against hERG at different concentrations was calculated and the range of the half maximal inhibitory concentration (IC50) of the compounds was determined. Percentage inhibition (%)=(1−(mP of the test compound−mP of the positive control group)/(mP of the blank control group−mP of the positive control group))×100%.

With `C[C@@H]1OCC2(CCN(c3ncc(Sc4ccnc(N5CCCC5CO)c4Cl)nc3CF)CC2)[C@@H]1N` (stereo partly drawn) [Example 4, (1-(4-(5-((3S,4S)-4-amino-3-methyl-2-oxa-8-azaspiro[4.5]decan-8-yl)-6-(fluoromethyl)pyrazin-2-ylthio)-3-chloropyridin-2-yl)pyrrolidin-2-yl)methanol] the pIC50 [1] was 6.77, the IC50 [2] was 4.1 nM and the pIC50 (hERG) was less than 5.00.
In the case of `N[C@@H]1COCC12CCN(c1ncc(Sc3ccnc(N4CCCC4CO)c3Cl)nc1CO)CC2` (stereo partly drawn) [Example 7, (3-((S)-4-amino-2-oxa-8-azaspiro[4.5]decan-8-yl)-6-(3-chloro-2-(2-(hydroxymethyl)pyrrolidin-1-yl)pyridin-4-ylthio)pyrazin-2-yl)methanol], the pIC50 [1] was 6.11, the IC50 [2] was 4.6 nM and the pIC50 (hERG) was less than 5.00.
`C[C@@H]1OCC2(CCN(c3ncc(Sc4ccnc(N5CC[C@H]5CO)c4Cl)nc3CO)CC2)[C@@H]1N` [Example 9, (3-((3S,4S)-4-amino-3-methyl-2-oxa-8-azaspiro[4.5]decan-8-yl)-6-(3-chloro-2-((S)-2-(hydroxymethyl)azetidin-1-yl)pyridin-4-ylthio)pyrazin-2-yl)methanol] was tested, and the pIC50 [1] was 6.66, the IC50 [2] was 1.3 nM and the pIC50 (hERG) was less than 5.00.
In the case of `C[C@@H]1OCC2(CCN(c3ncc(Sc4ccnc(N5CCCC5CC#N)c4Cl)nc3CO)CC2)[C@@H]1N` (stereo partly drawn) [Example 18, 2-(1-(4-(5-((3S,4S)-4-amino-3-methyl-2-oxa-8-azaspiro[4.5]decan-8-yl)-6-(hydroxymethyl)pyrazin-2-ylthio)-3-chloropyridin-2-yl)pyrrolidin-2-yl)acetonitrile], the pIC50 [1] was 6.62, the IC50 [2] was 1.9 nM and the pIC50 (hERG) was less than 5.00.
With `C[C@@H]1OCC2(CCN(c3ncc(Sc4ccnc(N5CC(C(C)(C)C#N)C5)c4Cl)nc3CO)CC2)[C@@H]1N` [Example 30, 2-(1-(4-(5-((3S,4S)-4-amino-3-methyl-2-oxa-8-azaspiro[4.5]decan-8-yl)-6-(hydroxymethyl)pyrazin-2-ylthio)-3-chloropyridin-2-yl)azetidin-3-yl)-2-methylpropanenitrile] the IC50 [2] was 4 nM and the pIC50 (hERG) was less than 5.00.
Work on `C[C@@H]1OCC2(CCN(c3ncc(Sc4ccnc(N5CC(F)(CO)C5)c4Cl)nc3CO)CC2)[C@@H]1N` [Example 39, (3-((3S,4S)-4-amino-3-methyl-2-oxa-8-azaspiro[4.5]decan-8-yl)-6-(3-chloro-2-(3-fluoro-3-(hydroxymethyl)azetidin-1-yl)pyridin-4-ylthio)pyrazin-2-yl)methanol] yielded a pIC50 [1] of 7.70, an IC50 [2] of 1.4 nM and a pIC50 (hERG) of less than 5.00.
